From ChEMBL document CHEMBL1177795, “Synthesis of two marine farnesylacetones that dilate the basilar arteries of rabbits” (Bioorg Med Chem Lett, 2010)
Each block holds one molecule with its values, some of them ahead of it.

Legend:
[1] = Vasorelaxant activity against depolarization-induced basilar artery constriction in white rabbit at 10 uM; type: functional, Oryctolagus cuniculus; set-up: scale not given: the % may be the effect or the level left
[2] = Vasorelaxant activity against depolarization-induced basilar artery constriction in white rabbit; type: functional, tissue-based, Oryctolagus cuniculus

SMILES: C/C(=C\CC/C(C)=C/CCC1(C)OCCO1)CC#N
Activity [1]: 33.5%

SMILES: CC(=O)CC/C=C(\C)CC/C=C(\C)CC#N
Activity [1]: 13.1%

SMILES: CC(=O)CC/C=C(\C)CCC/C(C)=C/C=O
Activity [1]: 12.6%

SMILES: C/C(=C\C=O)CCC/C(C)=C/CCC1(C)OCCO1
Activity [1]: 20.1%

EC50 [2]: 1410 nM
SMILES: C/C(=C\CCC1(C)OCCO1)CCC/C(C)=C/C(O)CC(C)C (stereo unspecified)
Activity [1]: 99.8%

SMILES: C/C(=C\CCC1(C)OCCO1)CCC/C(C)=C/C(=O)CC(C)C
Activity [1]: 83.3%

EC50 [2]: 2380 nM
SMILES: CC(=O)CC/C=C(\C)CCC/C(C)=C/C(O)CC(C)C (stereo unspecified)
Activity [1]: 98.9%

SMILES: CC(=O)CC/C=C(\C)CCC/C(C)=C/C#N
Activity [1]: 10.3%

SMILES: C/C(=C\C#N)CCC/C(C)=C/CCC1(C)OCCO1
Activity [1]: 44.6%
